Source: PubChem BioAssay (NCI)
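Results reflect a 48-hour exposure of cells in 96-well plates to compound at five concentrations. TGI: concentration producing complete growth inhibition.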

Experiments:
Test in all cases: NCI-60 cell line screen, 48 h
786-0 renal = test system: 786-0 renal
A549 NSCLC = test system: A549 NSCLC
ACHN renal = test system: ACHN renal
CAKI-1 renal = test system: CAKI-1 renal
CCRF-CEM leukemia = test system: CCRF-CEM leukemia
COLO 205 colon = test system: COLO 205 colon
DLD-1 colon = test system: DLD-1 colon
DMS 114 small cell lung = test system: DMS 114 small cell lung
EKVX NSCLC = test system: EKVX NSCLC
HCC-2998 colon = test system: HCC-2998 colon
HCT-116 colon = test system: HCT-116 colon
HCT-15 colon = test system: HCT-15 colon
HL-60(TB) leukemia = test system: HL-60(TB) leukemia
HOP-62 NSCLC = test system: HOP-62 NSCLC
HOP-92 NSCLC = test system: HOP-92 NSCLC
HT29 colon = test system: HT29 colon
IGROV1 ovarian = test system: IGROV1 ovarian
K-562 leukemia = test system: K-562 leukemia
KM12 colon = test system: KM12 colon
KM20L2 colon = test system: KM20L2 colon
LOX IMVI melanoma = test system: LOX IMVI melanoma
LXFL 529 NSCLC = test system: LXFL 529 NSCLC
M14 melanoma = test system: M14 melanoma
M19-MEL melanoma = test system: M19-MEL melanoma
MALME-3M melanoma = test system: MALME-3M melanoma
NCI-H226 lung = test system: NCI-H226 lung
NCI-H23 lung = test system: NCI-H23 lung
NCI-H522 lung = test system: NCI-H522 lung
OVCAR-3 ovarian = test system: OVCAR-3 ovarian
OVCAR-4 ovarian = test system: OVCAR-4 ovarian
OVCAR-5 ovarian = test system: OVCAR-5 ovarian
RPMI-8226 leukemia = test system: RPMI-8226 leukemia
RXF 393 renal = test system: RXF 393 renal
RXF-631 renal = test system: RXF-631 renal
SF-268 CNS = test system: SF-268 CNS
SF-295 CNS = test system: SF-295 CNS
SF-539 CNS = test system: SF-539 CNS
SK-MEL-2 melanoma = test system: SK-MEL-2 melanoma
SK-MEL-28 melanoma = test system: SK-MEL-28 melanoma
SK-OV-3 ovarian = test system: SK-OV-3 ovarian
SN12C renal = test system: SN12C renal
SNB-19 CNS = test system: SNB-19 CNS
SNB-75 CNS = test system: SNB-75 CNS
SR leukemia = test system: SR leukemia
SW-620 colon = test system: SW-620 colon
TK-10 renal = test system: TK-10 renal
UACC-257 melanoma = test system: UACC-257 melanoma
UACC-62 melanoma = test system: UACC-62 melanoma
XF 498 CNS = test system: XF 498 CNS
DMS 273 small cell lung = test system: DMS 273 small cell lung
HOP-18 NSCLC = test system: HOP-18 NSCLC
NCI-H460 lung = test system: NCI-H460 lung
OVCAR-8 ovarian = test system: OVCAR-8 ovarian
SK-MEL-5 melanoma = test system: SK-MEL-5 melanoma
SNB-78 CNS = test system: SNB-78 CNS
U251 CNS = test system: U251 CNS
UO-31 renal = test system: UO-31 renal
A498 renal = test system: A498 renal
MOLT-4 leukemia = test system: MOLT-4 leukemia

Measured: TGI

COc1ccc(-c2cc(=O)c3cc(O)ccc3o2)c(OC)c1OC
76.5 µM: SNB-75 CNS
46.3 µM: OVCAR-3 ovarian
81.4 µM: OVCAR-5 ovarian
93 µM: SF-268 CNS
64.6 µM: NCI-H522 lung
37.2 µM: HL-60(TB) leukemia
57.1 µM: LOX IMVI melanoma
89.4 µM: RXF 393 renal
61.8 µM: HCT-116 colon
69.2 µM: SF-295 CNS
99.1 µM: SK-OV-3 ovarian
58.1 µM: KM20L2 colon
70.6 µM: CCRF-CEM leukemia
77.6 µM: SR leukemia
93.6 µM: ACHN renal
98 µM: HOP-92 NSCLC
87.7 µM: KM12 colon
32.8 µM: RPMI-8226 leukemia
not listed: DMS 273 small cell lung | HOP-18 NSCLC | NCI-H460 lung | OVCAR-8 ovarian | SK-MEL-5 melanoma | SNB-78 CNS | U251 CNS | UO-31 renal | A498 renal | MOLT-4 leukemia
> 100 µM: all other assays above

CC(C)C(CCOS(=O)(=O)O)CCC(C)[C@H]1[C@@H](O)C(O)C2[C@]3(O)C[C@@H](O)C4(O)C[C@@H](O)CC[C@]4(C)C3CC[C@@]21C (stereo partly specified)
not listed: OVCAR-5 ovarian | RXF-631 renal | SNB-75 CNS | UACC-257 melanoma | A498 renal | MOLT-4 leukemia
> 100 µM: all other assays above

CC1C(O)=C(O)c2ccccc2N1O (stereo unspecified)
not listed: DMS 114 small cell lung | SR leukemia
> 100 µM: all other assays above

CC(=O)Nc1ccc(C2=N/C(=C\c3ccc(Cl)cc3)C(=O)O2)cc1
90.9 µM: SF-268 CNS
71.7 µM: CCRF-CEM leukemia
73.9 µM: UO-31 renal
61.4 µM: XF 498 CNS
63.7 µM: NCI-H522 lung
35.6 µM: LOX IMVI melanoma
51.6 µM: 786-0 renal
94 µM: ACHN renal
86.7 µM: OVCAR-3 ovarian
57.5 µM: M19-MEL melanoma
56.9 µM: LXFL 529 NSCLC
64.1 µM: MOLT-4 leukemia
61.5 µM: SN12C renal
51.8 µM: K-562 leukemia
37.1 µM: HCT-15 colon
22.8 µM: SW-620 colon
38.5 µM: HCC-2998 colon
61.2 µM: SR leukemia
85.8 µM: HL-60(TB) leukemia
56.2 µM: M14 melanoma
not listed: DMS 114 small cell lung | RXF-631 renal
> 100 µM: all other assays above

CCc1ccccc1NC(=O)C(=O)C1C(=O)N(c2ccccc2)N=C1N (stereo unspecified)
not listed: CCRF-CEM leukemia | COLO 205 colon | NCI-H522 lung | SK-OV-3 ovarian | SR leukemia
> 100 µM: all other assays above

CC(=O)O[C@@H]1CC[C@@]2(C)C(=O)C34C[C@@]5(C)C([C@@H](C)CCCC(C)C)CCC5(C)[C@](O)(O3)C(=O)[C@H]4C2C1(C)C (stereo partly specified)
28.4 µM: SK-MEL-5 melanoma
34.7 µM: DLD-1 colon
27.3 µM: M19-MEL melanoma
34.5 µM: HOP-92 NSCLC
24.5 µM: SW-620 colon
33.1 µM: HOP-62 NSCLC
25.8 µM: M14 melanoma
25.3 µM: HL-60(TB) leukemia
29.6 µM: NCI-H226 lung | SNB-75 CNS
26.2 µM: OVCAR-4 ovarian
48.2 µM: SNB-78 CNS
28.8 µM: MOLT-4 leukemia
29.3 µM: OVCAR-5 ovarian
26 µM: UO-31 renal
32.9 µM: OVCAR-8 ovarian
25.1 µM: OVCAR-3 ovarian
35.2 µM: SR leukemia
27.8 µM: COLO 205 colon
25.6 µM: 786-0 renal | HT29 colon
33.2 µM: MALME-3M melanoma
37 µM: SK-MEL-2 melanoma
34.2 µM: RXF-631 renal
18.5 µM: NCI-H460 lung
26.5 µM: HCT-15 colon
29.8 µM: CAKI-1 renal | SF-295 CNS
32.4 µM: SK-OV-3 ovarian
27 µM: ACHN renal | HCT-116 colon
29.1 µM: A549 NSCLC
34.9 µM: SF-268 CNS
33.6 µM: DMS 114 small cell lung
32.5 µM: KM20L2 colon
26.7 µM: SN12C renal
38.9 µM: RPMI-8226 leukemia
25.5 µM: NCI-H522 lung
30.7 µM: SNB-19 CNS
19.8 µM: CCRF-CEM leukemia
35.6 µM: SK-MEL-28 melanoma
29.9 µM: K-562 leukemia
32.6 µM: UACC-62 melanoma
32.1 µM: LOX IMVI melanoma
24 µM: KM12 colon
23.5 µM: HCC-2998 colon
32.3 µM: UACC-257 melanoma
31.6 µM: IGROV1 ovarian
29.5 µM: HOP-18 NSCLC
27.2 µM: DMS 273 small cell lung
30.4 µM: LXFL 529 NSCLC
38.5 µM: A498 renal
39.4 µM: SF-539 CNS
38.3 µM: EKVX NSCLC
30.5 µM: TK-10 renal
27.4 µM: NCI-H23 lung | U251 CNS

CCN(/N=C1\CC2C=CCN(C2)C(=O)Cc2c1[nH]c1ccccc21)S(=O)(=O)c1ccc(C)cc1 (stereo unspecified)
38.6 µM: NCI-H226 lung
not listed: HOP-62 NSCLC | HOP-92 NSCLC | HT29 colon | LXFL 529 NSCLC | M14 melanoma | OVCAR-3 ovarian | OVCAR-5 ovarian | RXF 393 renal | SF-268 CNS | SK-MEL-28 melanoma | SK-OV-3 ovarian | HOP-18 NSCLC | NCI-H460 lung | SNB-78 CNS | A498 renal
> 100 µM: all other assays above
